Key:
Assay in all cases: KINOMEscan competition binding
Conditions in all cases: compound 10.0 µM
[1] = molecular target: CLK4 (human) (UniProt Q9HAZ1)
[2] = molecular target: MARK4 (human) (UniProt Q96L34)
[3] = molecular target: STK16 (human) (UniProt O75716)
[4] = molecular target: PIP5K1C (human) (UniProt O60331)
[5] = molecular target: EPHA6 (human) (UniProt Q9UF33)
[6] = molecular target: RPS6KA2 KD2 (human) (UniProt Q15349)
[7] = molecular target: MST1R (human) (UniProt Q04912)
[8] = molecular target: FYN (human) (UniProt P06241)
[9] = molecular target: MLTK (human) (UniProt Q9NYL2)
[10] = molecular target: CHUK (human) (UniProt O15111)
[11] = molecular target: JAK1 JH2 pseudokinase (human) (UniProt P23458)
[12] = molecular target: PKN3 (M.tuberculosis) (UniProt Q6P5Z2)
[13] = molecular target: FGR (human) (UniProt P09769)
[14] = molecular target: JAK3 JH1 catalytic (human) (UniProt P52333)
[15] = molecular target: GSK3A (human) (UniProt P49840)
[16] = molecular target: CDK9 (human) (UniProt P50750)
[17] = molecular target: PRKD2 (human) (UniProt Q9BZL6)
[18] = molecular target: CDKL5 (human) (UniProt O76039)
[19] = system: KIT (human), P10721 [L576P]
[20] = molecular target: AAK1 (human) (UniProt Q2M2I8)
[21] = molecular target: CAMK1D (human) (UniProt Q8IU85)
[22] = molecular target: TTK (human) (UniProt P33981)
[23] = molecular target: MAPK14 (human) (UniProt Q16539)
[24] = molecular target: LIMK1 (human) (UniProt P53667)
[25] = molecular target: RPS6KA5 KD2 (human) (UniProt O75582)
[26] = molecular target: PAK1 (human) (UniProt Q13153)
[27] = molecular target: PRKCD (human) (UniProt Q05655)
[28] = molecular target: DAPK3 (human) (UniProt O43293)
[29] = molecular target: GRK1 (human) (UniProt Q15835)
[30] = molecular target: MERTK (human) (UniProt Q12866)
[31] = molecular target: MAP3K2 (human) (UniProt Q9Y2U5)
[32] = molecular target: CSNK1D (human) (UniProt P48730)
[33] = molecular target: PTK2B (human) (UniProt Q14289)
[34] = molecular target: CDK2 (human) (UniProt P24941)
[35] = molecular target: CAMK2D (human) (UniProt Q13557)
[36] = molecular target: ICK (human) (UniProt Q9UPZ9)
[37] = molecular target: MAP3K15 (human) (UniProt Q6ZN16)
[38] = molecular target: STK11 (human) (UniProt Q15831)
[39] = molecular target: RIPK2 (human) (UniProt O43353)
[40] = molecular target: PIP4K2C (human) (UniProt Q8TBX8)
PIP4K2C (human), sequence (Q8TBX8 whole entry, looked up): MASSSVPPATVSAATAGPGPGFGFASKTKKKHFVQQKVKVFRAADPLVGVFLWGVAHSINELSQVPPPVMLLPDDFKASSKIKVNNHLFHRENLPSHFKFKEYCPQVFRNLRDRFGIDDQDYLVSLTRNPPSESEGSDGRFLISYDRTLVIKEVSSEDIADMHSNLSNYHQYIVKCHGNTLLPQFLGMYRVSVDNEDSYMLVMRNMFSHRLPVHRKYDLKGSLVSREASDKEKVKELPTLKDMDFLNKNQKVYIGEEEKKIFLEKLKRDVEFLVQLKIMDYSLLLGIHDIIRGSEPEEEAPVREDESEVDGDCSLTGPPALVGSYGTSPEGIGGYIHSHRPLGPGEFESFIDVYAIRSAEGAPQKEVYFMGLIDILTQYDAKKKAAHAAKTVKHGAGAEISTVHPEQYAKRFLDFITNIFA

MLTK (human), sequence (Q9NYL2 whole entry, looked up): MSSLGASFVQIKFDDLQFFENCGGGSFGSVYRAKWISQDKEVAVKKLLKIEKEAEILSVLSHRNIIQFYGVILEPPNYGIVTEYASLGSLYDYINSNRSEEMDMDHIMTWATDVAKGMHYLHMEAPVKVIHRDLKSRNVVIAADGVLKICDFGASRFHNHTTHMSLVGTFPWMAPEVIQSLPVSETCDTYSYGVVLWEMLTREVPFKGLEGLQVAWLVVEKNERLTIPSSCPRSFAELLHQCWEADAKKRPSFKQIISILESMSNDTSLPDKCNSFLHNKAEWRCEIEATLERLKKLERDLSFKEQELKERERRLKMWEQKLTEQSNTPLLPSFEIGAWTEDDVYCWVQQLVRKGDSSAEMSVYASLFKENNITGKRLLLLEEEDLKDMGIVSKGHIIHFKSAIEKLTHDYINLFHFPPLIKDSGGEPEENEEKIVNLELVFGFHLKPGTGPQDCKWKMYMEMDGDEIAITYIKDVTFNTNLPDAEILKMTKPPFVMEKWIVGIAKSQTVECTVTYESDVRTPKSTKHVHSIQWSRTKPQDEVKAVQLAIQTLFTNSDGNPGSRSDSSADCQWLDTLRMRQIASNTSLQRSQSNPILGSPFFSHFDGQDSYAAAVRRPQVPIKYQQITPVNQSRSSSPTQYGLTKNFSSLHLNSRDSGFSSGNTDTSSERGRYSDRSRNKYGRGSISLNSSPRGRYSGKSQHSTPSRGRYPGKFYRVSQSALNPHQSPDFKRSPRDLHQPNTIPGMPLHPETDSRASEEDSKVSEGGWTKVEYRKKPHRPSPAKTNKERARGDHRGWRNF
STK11 (human), sequence (Q15831 whole entry, looked up): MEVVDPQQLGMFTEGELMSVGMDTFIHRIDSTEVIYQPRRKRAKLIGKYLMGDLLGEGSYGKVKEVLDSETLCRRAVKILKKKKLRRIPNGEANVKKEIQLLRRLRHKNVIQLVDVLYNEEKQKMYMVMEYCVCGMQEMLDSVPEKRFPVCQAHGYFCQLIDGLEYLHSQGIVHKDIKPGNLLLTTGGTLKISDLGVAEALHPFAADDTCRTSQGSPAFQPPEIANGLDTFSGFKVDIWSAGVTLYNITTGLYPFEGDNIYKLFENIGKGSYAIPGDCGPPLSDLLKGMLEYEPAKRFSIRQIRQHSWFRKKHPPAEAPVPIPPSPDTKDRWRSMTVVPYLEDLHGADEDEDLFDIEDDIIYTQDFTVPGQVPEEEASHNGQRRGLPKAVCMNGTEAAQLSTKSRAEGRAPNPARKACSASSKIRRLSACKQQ
CDKL5 (human), sequence (O76039 whole entry, looked up): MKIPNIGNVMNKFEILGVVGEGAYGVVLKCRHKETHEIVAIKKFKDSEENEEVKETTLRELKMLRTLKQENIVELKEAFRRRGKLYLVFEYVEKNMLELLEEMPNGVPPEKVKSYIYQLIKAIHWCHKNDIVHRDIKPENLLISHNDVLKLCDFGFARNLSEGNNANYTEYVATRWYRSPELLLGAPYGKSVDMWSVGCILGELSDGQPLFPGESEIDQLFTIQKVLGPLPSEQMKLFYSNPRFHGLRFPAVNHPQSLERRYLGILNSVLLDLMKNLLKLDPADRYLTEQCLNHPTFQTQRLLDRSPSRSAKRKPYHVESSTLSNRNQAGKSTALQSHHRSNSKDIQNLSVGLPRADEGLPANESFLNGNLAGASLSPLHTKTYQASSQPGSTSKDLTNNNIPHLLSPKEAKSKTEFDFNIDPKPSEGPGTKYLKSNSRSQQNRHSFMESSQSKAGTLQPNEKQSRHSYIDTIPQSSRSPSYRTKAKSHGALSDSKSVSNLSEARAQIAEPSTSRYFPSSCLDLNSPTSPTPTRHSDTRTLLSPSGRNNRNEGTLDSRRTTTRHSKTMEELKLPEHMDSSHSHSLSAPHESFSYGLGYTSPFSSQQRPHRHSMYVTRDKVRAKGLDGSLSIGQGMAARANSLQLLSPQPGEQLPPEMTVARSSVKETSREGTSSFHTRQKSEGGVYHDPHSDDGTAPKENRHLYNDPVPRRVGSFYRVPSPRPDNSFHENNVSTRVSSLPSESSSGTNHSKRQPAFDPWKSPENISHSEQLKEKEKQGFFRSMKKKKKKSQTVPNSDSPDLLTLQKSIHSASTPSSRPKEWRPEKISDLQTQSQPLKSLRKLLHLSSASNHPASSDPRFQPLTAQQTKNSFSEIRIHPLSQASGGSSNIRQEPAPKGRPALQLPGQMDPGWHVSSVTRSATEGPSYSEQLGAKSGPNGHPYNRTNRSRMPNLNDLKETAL
PRKCD (human), sequence (Q05655 whole entry, looked up): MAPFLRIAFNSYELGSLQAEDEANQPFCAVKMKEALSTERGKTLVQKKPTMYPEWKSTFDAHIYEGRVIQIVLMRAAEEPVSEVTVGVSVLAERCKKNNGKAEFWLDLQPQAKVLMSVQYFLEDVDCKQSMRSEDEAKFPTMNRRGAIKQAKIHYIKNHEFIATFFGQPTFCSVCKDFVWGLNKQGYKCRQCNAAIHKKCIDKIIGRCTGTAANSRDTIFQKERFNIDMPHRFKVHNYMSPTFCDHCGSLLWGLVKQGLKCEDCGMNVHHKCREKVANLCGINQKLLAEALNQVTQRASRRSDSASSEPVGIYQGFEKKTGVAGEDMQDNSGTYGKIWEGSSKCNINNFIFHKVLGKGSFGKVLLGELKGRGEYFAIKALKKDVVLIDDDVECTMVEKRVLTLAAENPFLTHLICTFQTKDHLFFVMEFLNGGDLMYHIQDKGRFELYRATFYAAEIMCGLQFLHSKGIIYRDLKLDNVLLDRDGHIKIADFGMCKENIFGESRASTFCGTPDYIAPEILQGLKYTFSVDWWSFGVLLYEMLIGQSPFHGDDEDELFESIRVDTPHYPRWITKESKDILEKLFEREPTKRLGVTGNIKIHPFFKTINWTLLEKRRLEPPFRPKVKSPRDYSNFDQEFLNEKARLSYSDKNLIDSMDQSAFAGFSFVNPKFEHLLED
STK16 (human), sequence (O75716 whole entry, looked up): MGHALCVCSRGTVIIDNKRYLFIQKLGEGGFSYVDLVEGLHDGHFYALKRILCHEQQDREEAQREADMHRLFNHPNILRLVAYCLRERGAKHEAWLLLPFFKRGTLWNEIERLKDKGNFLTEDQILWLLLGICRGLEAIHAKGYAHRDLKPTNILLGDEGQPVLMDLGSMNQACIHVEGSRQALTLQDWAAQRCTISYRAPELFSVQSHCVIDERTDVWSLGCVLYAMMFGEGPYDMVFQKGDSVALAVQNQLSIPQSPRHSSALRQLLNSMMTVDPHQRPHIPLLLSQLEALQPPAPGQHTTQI
CSNK1D (human), sequence (P48730 whole entry, looked up): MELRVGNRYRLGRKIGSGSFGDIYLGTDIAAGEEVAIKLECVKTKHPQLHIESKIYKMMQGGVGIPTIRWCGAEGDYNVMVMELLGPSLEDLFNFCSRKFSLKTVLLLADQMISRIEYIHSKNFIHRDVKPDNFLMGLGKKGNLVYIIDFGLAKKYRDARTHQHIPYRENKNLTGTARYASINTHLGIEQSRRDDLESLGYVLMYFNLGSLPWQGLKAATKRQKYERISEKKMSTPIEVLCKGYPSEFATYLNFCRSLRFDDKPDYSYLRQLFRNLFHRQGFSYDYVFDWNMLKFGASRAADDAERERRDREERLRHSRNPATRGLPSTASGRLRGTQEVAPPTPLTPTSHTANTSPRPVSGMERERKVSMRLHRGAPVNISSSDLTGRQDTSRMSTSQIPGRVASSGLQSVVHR
EPHA6 (human), sequence (Q9UF33 whole entry, looked up): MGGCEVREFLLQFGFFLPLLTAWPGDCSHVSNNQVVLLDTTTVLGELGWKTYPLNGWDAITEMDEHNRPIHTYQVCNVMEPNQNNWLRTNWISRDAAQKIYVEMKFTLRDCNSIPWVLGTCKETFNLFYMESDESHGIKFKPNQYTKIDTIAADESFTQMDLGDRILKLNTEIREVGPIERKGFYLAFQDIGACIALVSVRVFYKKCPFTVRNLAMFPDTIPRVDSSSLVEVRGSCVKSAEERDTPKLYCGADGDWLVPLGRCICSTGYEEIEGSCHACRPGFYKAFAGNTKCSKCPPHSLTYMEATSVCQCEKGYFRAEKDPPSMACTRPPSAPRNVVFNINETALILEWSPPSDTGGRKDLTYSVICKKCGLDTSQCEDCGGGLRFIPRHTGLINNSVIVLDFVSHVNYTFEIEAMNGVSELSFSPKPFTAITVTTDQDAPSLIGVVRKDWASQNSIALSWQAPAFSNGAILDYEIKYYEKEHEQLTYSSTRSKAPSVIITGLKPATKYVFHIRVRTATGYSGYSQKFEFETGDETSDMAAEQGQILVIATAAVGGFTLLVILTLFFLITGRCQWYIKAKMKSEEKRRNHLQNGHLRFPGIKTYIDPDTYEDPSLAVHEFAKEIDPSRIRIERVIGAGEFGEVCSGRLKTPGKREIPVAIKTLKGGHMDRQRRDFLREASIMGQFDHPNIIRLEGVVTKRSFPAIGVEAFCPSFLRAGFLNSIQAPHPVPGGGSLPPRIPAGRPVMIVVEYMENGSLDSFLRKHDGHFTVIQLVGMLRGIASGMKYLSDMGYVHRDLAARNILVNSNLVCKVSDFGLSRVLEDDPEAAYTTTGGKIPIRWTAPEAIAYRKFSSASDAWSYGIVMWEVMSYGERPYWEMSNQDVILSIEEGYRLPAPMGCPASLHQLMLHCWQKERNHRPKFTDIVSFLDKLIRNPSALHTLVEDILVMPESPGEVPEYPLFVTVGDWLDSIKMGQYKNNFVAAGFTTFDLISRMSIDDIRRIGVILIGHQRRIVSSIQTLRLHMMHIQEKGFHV

Row | SMILES | kinase still bound, per cent of control [1] [%] | kinase still bound, per cent of control [2] [%] | kinase still bound, per cent of control [3] [%] | kinase still bound, per cent of control [4] [%] | kinase still bound, per cent of control [5] [%] | kinase still bound, per cent of control [6] [%] | kinase still bound, per cent of control [7] [%] | kinase still bound, per cent of control [8] [%] | kinase still bound, per cent of control [9] [%] | kinase still bound, per cent of control [10] [%] | kinase still bound, per cent of control [11] [%] | kinase still bound, per cent of control [12] [%] | kinase still bound, per cent of control [13] [%] | kinase still bound, per cent of control [14] [%] | kinase still bound, per cent of control [15] [%] | kinase still bound, per cent of control [16] [%] | kinase still bound, per cent of control [17] [%] | kinase still bound, per cent of control [18] [%] | kinase still bound, per cent of control [19] [%] | kinase still bound, per cent of control [20] [%] | also measured
1 | O=C(Nc1cccc(Nc2ncc(Br)c(NCCc3cnc[nH]3)n2)c1)N1CCCC1 | 28 | 0 | 0.55 | 22 | 54 | 4.8 | 70 | 8.2 | 12 | 4.1 | 0.2 | 6.6 | 13 | 0 | 60 | 66 | 1.7 | 1.8 | 0 | 3.1 | kinase still bound, per cent of control [21]: 4.6%; kinase still bound, per cent of control [22]: 5%; kinase still bound, per cent of control [23]: 100%; kinase still bound, per cent of control [24]: 38%; kinase still bound, per cent of control [25]: 31%; kinase still bound, per cent of control [26]: 36%; kinase still bound, per cent of control [27]: 12%; kinase still bound, per cent of control [28]: 4%; kinase still bound, per cent of control [29]: 47%; kinase still bound, per cent of control [30]: 0.5%; kinase still bound, per cent of control [31]: 0.25%; kinase still bound, per cent of control [32]: 73%; kinase still bound, per cent of control [33]: 8.2%; kinase still bound, per cent of control [34]: 43%; kinase still bound, per cent of control [35]: 46%; kinase still bound, per cent of control [36]: 10%; kinase still bound, per cent of control [37]: 50%; kinase still bound, per cent of control [38]: 3.2%; kinase still bound, per cent of control [39]: 58%; kinase still bound, per cent of control [40]: 2%
2 | COc1cc2ncn(-c3cc(OCc4ccccc4C(F)(F)F)c(C(N)=O)s3)c2cc1OC | 45 | 99 | 49 | 10 | 59 | 74 | 100 | 48 | 74 | 86 | 100 | 76 | 63 | 40 | 100 | 100 | 100 | 73 | 30 | 28 | kinase still bound, per cent of control [21]: 100%; kinase still bound, per cent of control [22]: 87%; kinase still bound, per cent of control [23]: 100%; kinase still bound, per cent of control [24]: 79%; kinase still bound, per cent of control [25]: 76%; kinase still bound, per cent of control [26]: 100%; kinase still bound, per cent of control [27]: 100%; kinase still bound, per cent of control [28]: 19%; kinase still bound, per cent of control [29]: 96%; kinase still bound, per cent of control [30]: 7%; kinase still bound, per cent of control [31]: 100%; kinase still bound, per cent of control [32]: 81%; kinase still bound, per cent of control [33]: 72%; kinase still bound, per cent of control [34]: 73%; kinase still bound, per cent of control [35]: 75%; kinase still bound, per cent of control [36]: 100%; kinase still bound, per cent of control [37]: 63%; kinase still bound, per cent of control [38]: 37%; kinase still bound, per cent of control [39]: 41%; kinase still bound, per cent of control [40]: 26%
